The SangsterLogP compilation

logP	SMILES
1.59	CCC(C)OC(=O)[C@@H](N)Cc1ccc(O)cc1 (stereo partly drawn)
0.99	CC(C)OC(=O)[C@@H](N)Cc1ccc(O)cc1
0.52	CC(C)OC(=O)[C@@H](N)Cc1ccc(O)c(O)c1
-1.86	CC(C)(C)OC(=O)N[C@@H](Cc1ccc(O)c(O)c1)C(=O)O
-0.28	COC(=O)[C@@H](N)Cc1ccc(O)c(O)c1
1.62	N[C@@H](Cc1ccc(O)cc1)C(=O)Oc1ccc([N+](=O)[O-])cc1
-0.45	N[C@@H](Cc1ccc(O)c(O)c1)C(=O)OC1CCOC1 (stereo partly drawn)
0.01	N[C@@H](Cc1ccc(O)c(O)c1)C(=O)OCC1CCCO1 (stereo partly drawn)
0.18	COC(=O)[C@@H](N)Cc1ccc(O)cc1
0.93	CCC(C)OC(=O)[C@@H](N)Cc1ccc(O)c(O)c1 (stereo partly drawn)
0.81	CC(C)(C)OC(=O)[C@@H](N)Cc1ccc(O)c(O)c1
2.48	N[C@@H](Cc1ccccc1)C(=O)OCc1ccccc1
0.6	CCOC(=O)[C@@H](N)Cc1ccc(O)cc1
